The values that follow come from patent EP0404945A1 (priority 1989, dated 1990).

Read-outs that look alike come from different tables or passages of the source.

For data set [1], the system named is houseflies. Description: whole plant or invertebrate. As to conditions: Musca domestica; for mortality at 1 %: read-out: Death of flies, % Tests laboratory.
The next data set deals with ascarid ovi. Kind of data set: animal or person. Format: in vivo, pig.ascarid.
Data set [2] concerns virus of influenza, type A, (H1N1). Description: microbe, parasite or virus in culture.
The subject of the next data set is Colibacillus. Kind of data set: microbe, parasite or virus in culture. Format: cell-based. The settings on record: read-out: Efficiency of the preparation, % Colibacillus.
The next data set deals with Staphylococcus aureus. Kind of data set: microbe, parasite or virus in culture. The format is cell-based. The settings on record: read-out: Efficiency of the preparation, % Staphylococcus aureus.
Another data set deals with Aspergillus niger. The format is cell-based.
Another data set deals with Candida tropicalis. Kind of data set: microbe, parasite or virus in culture. The format is cell-based.
In the next data set the test system is Helminthosporum saturem. Format: cell-based.
The next data set deals with Venturia inaequalis. The format is cell-based.
For a further data set, the system named is Fusarium oxysporum. The format is cell-based.
The next data set concerns Penicillium sporum. Format: cell-based.
The test system of a further data set is Candida albicans. Description: microbe, parasite or virus in culture. Format: cell-based.
Another data set concerns Alternaria radicina. The format is cell-based.
The subject of data set [3] is houseflies. As to conditions: house fly, in vivo.
In data set [4] the test system is Infectant of poliomyelitis.
The mark [5] stands for this setting: 24 h, read-out: Death of flies, % after 24 hours.
Setting [6] is: 72 h, read-out: Death of flies, % after 72 hours.
The mark [7] stands for this setting: read-out: Death of ascarid ovi, % Tests laboratory.
The mark [8] stands for this setting: H1N1, 0.5 h, read-out: Death of viruses (%) at 30 minutes exposure, Virus of influenza A.
Where [9] appears, read: 48 h, read-out: Death of flies, % after 48 hours.
[10] abbreviates: H1N1, read-out: Virucidal activity of the preparation in respect of the virus of influenza, type A, %.
[11] abbreviates: 24 h, read-out: Death of ascarid ovi, % after 24 hrs.
The mark [12] stands for this setting: 48 h, read-out: Death of ascarid ovi, % after 48 hours.
Setting [13] is: 72 h, read-out: Death of ascarid ovi, % after 72 hours.
Where [14] appears, read: 2 h, read-out: Death of test fungi, % to the control, Candida tropicalis 2 hrs.
Where [15] appears, read: 20 h, read-out: Death of test fungi, % to the control, Candida tropicalis 20 hrs.
Setting [16] is: 2 h, read-out: Death of test fungi, % to the control, Candida albicans 2 hrs.
The mark [17] stands for this setting: 20 h, read-out: Death of test fungi, % to the control, Candida albicans 20 hrs.
[18] abbreviates: 24 h, read-out: Death of ascarid ovi, % after 24 hours.

As to `O=[N+]([O-])c1ccc(C(O)C(CCl)NP(=O)(O)Nc2ccccc2)cc1` (stereo not drawn) [Example 9], the mortality at 3 % with houseflies [1] (setting [5]) stood at 65%; in the data set with houseflies [1] (setting [6]), 96%. In the data set on ascarid ovi (setting [7]), the killing at 3 % was 100%. In data set [2] (setting [8]), the killing at 1 % is 78%.

Regarding `O=C(N[C@H](COP(=O)(NC(CCl)C(O)c1ccc([N+](=O)[O-])cc1)OC[C@@H](NC(=O)C(Cl)Cl)[C@H](O)c1ccc([N+](=O)[O-])cc1)[C@H](O)c1ccc([N+](=O)[O-])cc1)C(Cl)Cl` (stereo partly drawn) [Example 32], the killing at 3 % in the data set on ascarid ovi (setting [7]) was found to be 100%.

For the molecule `CCOP(=O)(O)NC(CCl)C(O)c1ccc([N+](=O)[O-])cc1` (stereo not drawn) [Example 30], the values for the mortality at 2 % in the data set with houseflies [1] (setting [9]) and with houseflies [1] (setting [6]) were 42.8% and 94%, respectively. In the data set on ascarid ovi (setting [7]), the killing at 3 % amounted to 100%. For the same molecule, the killing at 1 % in data set [2] (setting [10]) stood at 71.2%. Also, the killing at 2 % in [2] (setting [10]) stood at 79%.

Consider `O=[N+]([O-])c1ccc(C(Cl)C(CCl)NP(=O)(Nc2ccccc2)Nc2ccccc2)cc1` (stereo not drawn) [Example 8, 1-para- . -nitrophenyl-1,3-dichloroisopropylamidophosphoric acid dianilide], for which the mortality at 3 % was 66.4% in the data set with houseflies [1] (setting [5]) and 98% in the data set with houseflies [1] (setting [6]). Besides, the killing at 3 % in the data set on ascarid ovi (setting [7]) came to 100%. The killing at 1 % in data set [2] (setting [8]) is 100%.

Take `CCOP(=O)(NC(CCl)C(Cl)c1ccc([N+](=O)[O-])cc1)OCC` (stereo not drawn) [Example 14, 1-para-nitrophenyl-1,3--dichloropropanamidophosphoric acid diethyl ether]: the killing at 3 % with ascarid ovi (setting [11]), in the data set with ascarid ovi (setting [12]) and in the data set with ascarid ovi (setting [13]) was 100% throughout. Besides, the killing at 1 % in data set [2] (setting [8]) came to 90%.

Turning to `O=[N+]([O-])c1ccc(C(Cl)C(CCl)NP(=O)(Oc2ccccc2)Oc2ccccc2)cc1` (stereo not drawn) [Example 6, 1-para-nitrophenyl-1,3-dichlorisopropylamidophosphoric acid diphenyl ether], the mortality at 3 % in the data set with houseflies [1] (setting [5]) was determined as 64.7%; with houseflies [1] (setting [6]), 98.6%. The killing at 3 % with ascarid ovi (setting [7]) amounted to 100%. For the same molecule, in data set [2] (setting [8]), the killing at 1 % is 100%.

Take `O=S(=O)(NCl)c1ccccc1` [Known bactericidal preparation, Sodium N-Chlorobenzenesulphamide, reference compound]: the killing at 0.5 % in the data set on Colibacillus was determined as 100%. Moreover, the killing at 0.5 % in the data set with Staphylococcus aureus worked out at 100%. Besides, in [2] (setting [10]), the killing at 1 % amounted to 22% and the killing at 2 % came out at 28%.

Regarding `O=C1C(Cl)=C(Cl)C(=O)c2ccccc21` [Phygon, 2,3-dichloronaphtho-quinone-1,4, reference compound], the “Mycelium growth inhibition, % to the control, Aspergillus niger” value in the data set with Aspergillus niger is 100%. Moreover, the killing at 0.05 % in the data set with Candida tropicalis (setting [14]) was 76%; with Candida tropicalis (setting [15]) it was 100%; in the data set with Candida albicans (setting [16]), 68%; in the data set on Candida albicans (setting [17]), 100%. Besides, the “Mycelium growth inhibition, % to the control, Helminthosporum saturem” value in the data set with Helminthosporum saturem is 92%. In the data set on Venturia inaequalis, the “Mycelium growth inhibition, % to the control, Venturia inaequalis” value is 98%. Also, the “Mycelium growth inhibition, % to the control, Fusarium oxisporum” value in the data set with Fusarium oxysporum amounted to 58%. Besides, the “Mycelium growth inhibition, % to the control, Penicillium sporum” value in the data set on Penicillium sporum was found to be 100%. For the same molecule, the “Mycelium growth inhibition, % to the control, Alternaria radicina” value in the data set with Alternaria radicina is 94%.

For the molecule `COP(=O)(NC(CCl)C(O)c1ccc([N+](=O)[O-])cc1)OC` (stereo not drawn) [Example 11, 1-para-nitrophenyl-1-chloro-3-propanolamidophosphoric acid dimethyl ether], the mortality at 1 % in the data set on houseflies [1] came out at 67.7%. Also, the “Death of flies, % Tests laboratory” value in the data set on houseflies [3] is reported as 72.7%. Besides, the killing at 3 % with ascarid ovi (setting [11]), in the data set on ascarid ovi (setting [12]) and in the data set on ascarid ovi (setting [13]) was 100% each time. Besides, the killing at 1 % in [2] (setting [8]) is 74%.

Regarding `CCOP(=O)(O)NC(CO)C(O)c1ccc([N+](=O)[O-])cc1` (stereo not drawn) [Example 29, 1-para-nitrophenyl-1,3-propanediolamidophos-phoric acid ethyl ether], the mortality at 2 % in the data set on houseflies [1] (setting [9]) is 56%; with houseflies [1] (setting [6]), 92.3%. In addition, the killing at 3 % in the data set with ascarid ovi (setting [7]) worked out at 100%. Further, the killing at 1 % in [2] (setting [10]) stood at 83.3%. For the same molecule, the killing at 2 % in [2] (setting [10]) is 86.7%.

For the molecule `O=[N+]([O-])c1ccc(C(O)C(CO)NP(=O)(O)O)cc1` (stereo not drawn) [Example 1, 1-para-netrophenyl-1,3--propanediolamidophosphoric acid], the “Mycelium growth inhibition, % to the control, Aspergillus niger” value with Aspergillus niger is reported as 99%. Further, the killing at 0.05 % with Candida tropicalis (setting [14]) turned out to be 96%; in the data set with Candida tropicalis (setting [15]), 100%; in the data set on Candida albicans (setting [16]), 98%; with Candida albicans (setting [17]), 100%. In addition, in data set [4], the “Death of viruses (%) at 60 minutes exposure, Infectant of poliomyelitis” value is 40%. Also, the “Mycelium growth inhibition, % to the control, Helminthosporum saturem” value in the data set with Helminthosporum saturem is on record as 54%. The killing at 0.5 % in the data set on Colibacillus was found to be 100%; with Staphylococcus aureus it was 80%. The “Mycelium growth inhibition, % to the control, Venturia inaequalis” value in the data set on Venturia inaequalis came to 32%. Besides, in the data set with Fusarium oxysporum, the “Mycelium growth inhibition, % to the control, Fusarium oxisporum” value was found to be 68%. Besides, in the data set with ascarid ovi (setting [7]), the killing at 3 % came out at 100%. Further, the “Mycelium growth inhibition, % to the control, Penicillium sporum” value in the data set on Penicillium sporum is given as 58%. The “Mycelium growth inhibition, % to the control, Alternaria radicina” value with Alternaria radicina is recorded as 75%.

Take `O=[N+]([O-])c1ccc(C(Cl)C(CCl)NP(=O)(O)Oc2ccccc2)cc1` (stereo not drawn) [Example 59, 1-para-nitrophenyl-1,3-dichloropropane--2-amidophosphoric acid monophenyl ether]: the mortality at 2 % is 60% in the data set on houseflies [1] (setting [9]) and 91.2% with houseflies [1] (setting [6]). Further, the killing at 2 % with ascarid ovi (setting [18]) came to 91.8%; with ascarid ovi (setting [12]), 100%; in [2] (setting [10]) it was 96.1%. The killing at 1 % in [2] (setting [10]) came to 92.3%.

On to `CCOP(=O)(NC(CCl)C(O)c1ccc([N+](=O)[O-])cc1)OCC` (stereo not drawn) [Example 13, 1-para-nitrophenyl-1-chloro-3-propanolamidophosphoric acid diethyl ether], for which the mortality at 1 % in the data set on houseflies [1] was 99.6%. Moreover, the killing at 3 % in the data set on ascarid ovi (setting [11]), with ascarid ovi (setting [12]) and with ascarid ovi (setting [13]) was 100% throughout. Further, the killing at 1 % in data set [2] (setting [8]) amounted to 90%.

As to `CNC(=S)S` [Known ovocidal preparation (carbathion), sodium N-methyldithiocarbamate dihydrate, reference compound], the figures for the killing at 2 % with ascarid ovi (setting [18]) and in the data set on ascarid ovi (setting [12]) were 60% and 80%, respectively. For the same molecule, the results for the killing at 3 % in the data set on ascarid ovi (setting [11]), in the data set on ascarid ovi (setting [12]) and with ascarid ovi (setting [7]) were 100%, 100% and 80%, respectively.

On to `COP(=O)(NC(CCl)C(Cl)c1ccc([N+](=O)[O-])cc1)OC` (stereo not drawn) [Example 12, 1-para-nitrophenyl--1,3-dichloropropanamidophosphoric acid dimethyl ether], for which, in the data set on houseflies [1], the mortality at 1 % was 71.4%. For the same molecule, the killing at 3 % with ascarid ovi (setting [11]), in the data set with ascarid ovi (setting [12]) and in the data set on ascarid ovi (setting [13]) was 100% throughout. For the same molecule, the killing at 1 % in data set [2] (setting [8]) turned out to be 85%.

For `CCOP(=O)(O)NC(CCl)C(Cl)c1ccc([N+](=O)[O-])cc1` (stereo not drawn) [Example 31, 1-para-nitrophenyl-1,3-dichloropropanamidophosphor-ic acid ethyl ether], the mortality at 2 % in the data set with houseflies [1] (setting [9]) is 44.2%. Further, the mortality at 2 % in the data set on houseflies [1] (setting [6]) is 91.3%. Further, in the data set on ascarid ovi (setting [7]), the killing at 3 % was determined as 100%. Further, in [2] (setting [10]), the killing at 1 % came to 36.9% and the killing at 2 % came to 46.9%.

Regarding `O=[N+]([O-])c1ccc(C(O)C(CCl)NP(=O)(Nc2ccccc2)Nc2ccccc2)cc1` (stereo not drawn) [Example 7, 1-para-nitrophenyl-1-hydroxy-3-chloroisopro-pylamidophosphoric acid dianilide], the mortality at 3 % in the data set with houseflies [1] (setting [5]) came out at 55.1%; in the data set on houseflies [1] (setting [6]), 94%. Moreover, the killing at 3 % with ascarid ovi (setting [7]) was 100%. Moreover, in data set [2] (setting [8]), the killing at 1 % stood at 100%.

In the case of `O=[N+]([O-])c1ccc(C(O)C(CCl)NP(=O)(Oc2ccccc2)Oc2ccccc2)cc1` (stereo not drawn) [Example 5, diphenyl ether of 1-para-nitrophenyl-1--hydroxy-3-chloroisopropylamidophosphoric acid], the mortality at 3 % in the data set with houseflies [1] (setting [5]) was 35.4%; in the data set on houseflies [1] (setting [6]), 96%. In the data set on ascarid ovi (setting [7]), the killing at 3 % is 100%. Also, the killing at 1 % in data set [2] (setting [8]) came out at 100%.

As for `O=[N+]([O-])c1ccc(C(Cl)C(CCl)NP(=O)(O)Nc2ccccc2)cc1` (stereo not drawn) [Example 10, 1-para-nitrophenyl-1,3-dichloropropan--2-amidophosphoric acid monoanilide], the mortality at 3 % in the data set on houseflies [1] (setting [5]) was 77%; in the data set on houseflies [1] (setting [6]), 99%. In addition, in the data set with ascarid ovi (setting [7]), the killing at 3 % was 100%. The killing at 1 % in data set [2] (setting [8]) was 87%.

On to `O=[N+]([O-])c1ccc(C(O)C(CCl)NP(=O)(O)Oc2ccccc2)cc1` (stereo not drawn) [Example 58], for which the mortality at 2 % amounted to 72% in the data set with houseflies [1] (setting [9]) and 99% with houseflies [1] (setting [6]). For the same molecule, the killing at 2 % in the data set with ascarid ovi (setting [18]) was found to be 95.4%; in the data set on ascarid ovi (setting [12]), 100%; in data set [2] (setting [10]) it was 86%. In addition, the killing at 1 % in data set [2] (setting [10]) was found to be 83.4%.
